Data as given in US6897203B2, “Polysaccharidic esters of retinoic acid” (priority 2001, dated 2005).

What was measured:
[1] = test system: P19 cells, embryonal pluripotent murine teratocarcinoma cell line; details: after 4 days of treatment, RT-PCR and RNase protection; for prodynorphin gene expression: P19 indifferentiated cells in suspension; for gene induction of the GATA-4 and Nkx-2.5 genes: P19 indifferentiated cells, follows the prodynorphin increase
Protocol: The experiments were carried out on P19 cells, embryonal pluripotent murine teratocarcinoma cell line (European Collection of Cell Cultures, UK). These cultured cells indifferentiately proliferate but can be transformed into several cell phenotypes in the presence of differentiating agents, thus selectively summarising the first molecular events that take place during the embryonal growth. […] P19 cells are cultivated in a suspension in alpha-mem medium in 60 mm Petri dishes, either in the absence or in the presence of the hyaluronan esters of the invention. After 4 days of treatment, the total RNA was extracted according to the procedure described by Chomczynsky and Sacchi (Chomczynsky, P., N. Sacchi, Anal. Biochem. 162: 156-159, 1987) and the expression of specific transcripts was evaluated by RT-PCR and RNase protection.

[2] = test system: P19 cells, embryonal pluripotent murine teratocarcinoma cell line; details: cultured P19 cells; McBurney et al., Nature 1982; cited from earlier work

Molecule: Ester of Hyaluronan with Trans-Retinoic Acid [Example 4]
- prodynorphin gene expression [1]: marked increase
- gene induction of the GATA-4 and Nkx-2.5 genes [1]: gene induction

Molecule: Hyaluronan Ester with Trans-Retinoic Acid [Example 3]
- prodynorphin gene expression [1]: marked increase
- gene induction of the GATA-4 and Nkx-2.5 genes [1]: gene induction

Molecule: C[S+](C)[O-] [DMSO, dimethylsulphoxide]
- differentiation phenotype of P19 cells in the presence of a differentiating agent [2]: turn into myocardial cells supplied with spontaneous contractile activity

Molecule: CC(C=CC1=C(C)CCCC1(C)C)=CC=CC(C)=CC(=O)O [retinoic acid, 3,7-dimethyl-9-(2,6,6-trimethyl-1-cyclohexene-1-yl)-2,4,6,8-nonatetraenoic acid]
- differentiation phenotype of P19 cells in the presence of a differentiating agent [2]: turn into neuronal cells
